B1: OPG: secreted decoy receptor that can reduce the RANKL activity (protein, UniProt O00300 22-401, looked up)
Tumor necrosis factor …: ETFPPKYLHYDEETSHQLLCDKCPPGTYLKQHCTAKWKTVCAPCPDHYYTDSWHTSDECLYCSPVCKELQYVKQECNRTHNRVCECKEGRYLEIEFCLKHRSCPPGFGVVQAGTPERNTVCKRCPDGFFSNETSSKAPCRKHTNCSVFGLLLTQKGNATHDNICSGNSESTQKCGIDVTLCEEAFFRFAVPTKFTPNWLSVLVDNLPGTKVNAESVERIKRQHSSQEQTFQLLKLWKHQNKDQDIVKKIIQDIDLCENSVQRHIGHANLTFEQLRSLMESLPGKKVGAEDIEKTIKACKPSDQILKLLSLWRIKNGDQDTLKGLMHALKHSKTYHFPKTVTQSLKKTIRFLHSFTMYKLYQKLFLEMIGNQVQSVKISCL

Tests used:
RANKL = RANKL expression in purified mammary epithelial cells (qRT-PCR, Western blot); assay type: in vivo, mouse; details: nulliparous wild type females, 3 days after implantation/oral gavage
Method: a,b, MPA induces RANKL expression in mammary epithelial cells. Nulliparous wild type females were treated with oral gavage of DMBA or oil vehicle, s.c. implanted with slow-release MPA pellets, or treated with sham surgery. a, RANKL mRNA was determined in purified mammary epithelial cells by qRT-PCR 3 days after implantation/oral gavage. Data are shown as fold change compared to sham treatment+/−sem. n=3 mice per group. b, Expression of soluble (s) RANKL protein (19 kDa) was assayed on cell lysates from purified mammary epithelial cells by Western blot 3 days after treatment with oil vehicle, DMBA, MPA, or sham surgery. β-actin is shown as a loading control. […] Data are shown as percentage of tumor-free mice after the last DMBA challenge. No significant difference was found between the Cre+ and the Cre− control groups. Median tumor onset for Cre^+ controls was 9 days, for Cre^− controls 11 days, and for RANK^Δmam females 30 days after the last DMBA treatment. d, Representative Southern blot of MPA/DMBA-induced mammary tumors derived from RANK^flox/+; MMTV-Cre+ and RANK^flox/Δ; MMTV-Cre+ (RANK^Δmam) females. […]
Total RNA of tumors was prepared using the RNeasy Mini Kit (Qiagen), according to the manufacturer's instructions. Total RNA (2 μg) was subjected to quantitative (q)RT-PCR analysis. […]

[1] = system: human SKBR3 breast cancer cells; assay: Soft-Agar Colony Formation Assay; assay type: cell-based; details: OPG (1 μg/ml) with RANKL (1 μg/ml)
Method: a, Western blotting for phosphorylated (P) IKKα, total IKKα, phosphorylated (P) p65 NFκB, total p65 NFκB, phosphorylated (P) IκBα, and total IκBα in isolated primary mouse mammary gland epithelial cells (MECs) in response to RANKL stimulation (1 μg/ml). […] is shown as loading control. b, Western blotting for IKKα, IKKβ, IKKγ, phosphorylated (P) p65 NFκB, total p65 NFκB, phosphorylated (P) IκBα, and total IκBα in pooled late stage mammary adenocarconimas (n=4 for each lane) that developed in control, RANK^Δmam, and IKKα^Δmam females. β-actin is shown as loading control c, Expression of RANK, CyclinD1, and p21 mRNA in late stage mammary adenocacinomas that developed in control, RANK^Δmam, and IKKα^Δmam females. Expression was determined by qRT-PCR. Data are mean values+/−sem. n=4 per group. d, Soft-Agar Colony Formation Assay. Growth of human SKBR3 breast cancer cells in soft agar in response to stimulation with RANKL (1 μg/ml) or EGF (100 ng/ml). […] Apoptosis was detected by immunostaining for active Caspase 3. f, Apoptotic nuclei of epithelial cells (arrows) are shown for representative mammary gland sections. Magnifications ×40. g, Quantification of mammary epithelial apoptosis. A minimum of 5000 nuclei was counted for each mouse. […]

Molecule | RANKL mRNA and protein expression in mammary epithelial cells (RANKL) | RANKL-induced colony formation in soft agar [1]
Cc1c2ccccc2c(C)c2c1ccc1ccccc12 [DMBA, dimethylbenz[a]anthracene] | not | –
B1 | – | prevented

Source: patent US20130316374A1, “BREAST CANCER DIAGNOSTICS” (IMBA - INSTITUT FUR MOLEKULARE BIOTECHNOLOGIE GMBH, priority 2010, published 2013)
